How the values were obtained:
Type in all cases: in vivo
Cyperus esculentus [1] = experiment: Pre-emergence herbicidal action against CYPES; settings: visual score after 3 weeks vs untreated controls
Method in brief: (§1)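 Sandy loam pots, seeds covered with soil, then surface-treated with WP or EC formulations at 600–800 l/ha water plus 0.2% wetting agent. Greenhouse, 3 weeks. Percent damage vs untreated controls.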

Matricaria inodora [2] = experiment: Post-emergence herbicidal action against MATIN; settings: visual assessment about 3 weeks after treatment
Method in brief: (§2)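 Herbicidal action is a visual percentage rating (0% = as untreated control, 100% = plants dead) made roughly 3 weeks after treatment. Plants were grown in sandy loam in the greenhouse and treated at the one-leaf stage, 2 to 3 weeks post-sowing. Treatment was a foliar spray of wettable-powder or emulsion-concentrate formulations at 600 to 800 l/ha water plus 0.2% wetting agent.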

Veronica persica [3] = experiment: Post-emergence herbicidal action against VERPE; settings: 80 g/ha, visual assessment about 3 weeks after treatment
Method in brief: as §2

Avena fatua [4] = experiment: Pre-emergence herbicidal action against AVEFA; settings: visual score after 3 weeks vs untreated controls
Method in brief: as §1

Echinochloa crus-galli [5] = experiment: Post-emergence herbicidal action against ECHCG; settings: visual assessment about 3 weeks after treatment
Method in brief: as §2

Viola tricolor [6] = experiment: Post-emergence herbicidal action against VIOTR
Method in brief: as §2

Polygonum convolvulus [7] = experiment: Post-emergence herbicidal action against POLCO; settings: 80 g/ha, visual assessment about 3 weeks after treatment
Method in brief: as §2

Alopecurus myosuroides [8] = experiment: Post-emergence herbicidal action against ALOMY
Method in brief: as §2

Amaranthus retroflexus [9] = experiment: Post-emergence herbicidal action against AMARE; settings: visual assessment about 3 weeks after treatment
Method in brief: as §2

Matricaria inodora [10] = experiment: Pre-emergence herbicidal action against MATIN; settings: visual score after 3 weeks vs untreated controls
Method in brief: as §1

Pharbitis purpurea [11] = experiment: Post-emergence herbicidal action against PHBPU; settings: visual assessment about 3 weeks after treatment
Method in brief: as §2

Abutilon theophrasti [12] = experiment: Pre-emergence herbicidal action against ABUTH; settings: visual score after 3 weeks vs untreated controls
Method in brief: as §1

Setaria viridis [13] = experiment: Pre-emergence herbicidal action against SETVI
Method in brief: as §1

Hordeum murinum [14] = experiment: Post-emergence herbicidal action against HORMU
Method in brief: as §2

Cyperus esculentus [15] = experiment: Post-emergence herbicidal action against CYPES; settings: 80 g/ha, visual assessment about 3 weeks after treatment
Method in brief: as §2

Veronica persica [16] = experiment: Pre-emergence herbicidal action against VERPE; settings: 320 g/ha
Method in brief: as §1

Stellaria media [17] = experiment: Pre-emergence herbicidal action against STEME
Method in brief: as §1

Abutilon theophrasti [18] = experiment: Post-emergence herbicidal action against ABUTH
Method in brief: as §2

Pharbitis purpurea [19] = experiment: Pre-emergence herbicidal action against PHBPU; settings: visual score after 3 weeks vs untreated controls
Method in brief: as §1

Lolium rigidum [20] = experiment: Post-emergence herbicidal action against LOLRI
Method in brief: as §2

Alopecurus myosuroides [21] = experiment: Pre-emergence herbicidal action against ALOMY; settings: visual score after 3 weeks vs untreated controls
Method in brief: as §1

Polygonum convolvulus [22] = experiment: Pre-emergence herbicidal action against POLCO; settings: 320 g/ha
Method in brief: as §1

Stellaria media [23] = experiment: Post-emergence herbicidal action against STEME; settings: visual assessment about 3 weeks after treatment
Method in brief: as §2

Echinochloa crus-galli [24] = experiment: Pre-emergence herbicidal action against ECHCG; settings: visual score after 3 weeks vs untreated controls
Method in brief: as §1

Avena fatua [25] = experiment: Post-emergence herbicidal action against AVEFA; settings: visual assessment about 3 weeks after treatment
Method in brief: as §2

Lolium rigidum [26] = experiment: Pre-emergence herbicidal action against LOLRI; settings: 320 g/ha
Method in brief: as §1

Amaranthus retroflexus [27] = experiment: Pre-emergence herbicidal action against AMARE; settings: visual score after 3 weeks vs untreated controls
Method in brief: as §1

Viola tricolor [28] = experiment: Pre-emergence herbicidal action against VIOTR
Method in brief: as §1

Hordeum murinum [29] = experiment: Pre-emergence herbicidal action against HORMU; settings: visual score after 3 weeks vs untreated controls
Method in brief: as §1

Setaria viridis [30] = experiment: Post-emergence herbicidal action against SETVI; settings: visual assessment about 3 weeks after treatment
Method in brief: as §2

SMILES: CCN(C)C(=O)c1c(C(F)(F)F)ccc(C(=O)Nc2nnnn2CC)c1Cl [Example 2-124]
- Pre-emergence action against CYPES (Cyperus esculentus [1]; 20 g/ha): 100%
- Pre-emergence action against CYPES (Cyperus esculentus [1]; 80 g/ha): 100%
- Pre-emergence action against CYPES (Cyperus esculentus [1]; 320 g/ha): 100%
- Post-emergence action against MATIN in % (Matricaria inodora [2]; 5 g/ha): 90%
- Post-emergence action against MATIN in % (Matricaria inodora [2]; 20 g/ha): 100%
- Post-emergence action against MATIN in % (Matricaria inodora [2]; 80 g/ha): 100%
- Post-emergence action against VERPE in % (Veronica persica [3]): 100%
- Pre-emergence action against AVEFA (Avena fatua [4]; 80 g/ha): 90%
- Pre-emergence action against AVEFA (Avena fatua [4]; 320 g/ha): 100%
- Post-emergence action against ECHCG in % (Echinochloa crus-galli [5]; 20 g/ha): 100%
- Post-emergence action against ECHCG in % (Echinochloa crus-galli [5]; 80 g/ha): 100%
- Post-emergence action against VIOTR in % (Viola tricolor [6]; 5 g/ha): 100%
- Post-emergence action against VIOTR in % (Viola tricolor [6]; 20 g/ha): 100%
- Post-emergence action against VIOTR in % (Viola tricolor [6]; 80 g/ha): 100%
- Post-emergence action against POLCO in % (Polygonum convolvulus [7]): 100%
- Post-emergence action against ALOMY (Alopecurus myosuroides [8]; 5 g/ha): 90%
- Post-emergence action against ALOMY (Alopecurus myosuroides [8]; 20 g/ha): 100%
- Post-emergence action against ALOMY (Alopecurus myosuroides [8]; 80 g/ha): 100%
- Post-emergence action against AMARE in % (Amaranthus retroflexus [9]; 5 g/ha): 100%
- Post-emergence action against AMARE in % (Amaranthus retroflexus [9]; 20 g/ha): 100%
- Post-emergence action against AMARE in % (Amaranthus retroflexus [9]; 80 g/ha): 100%
- Pre-emergence action against MATIN (Matricaria inodora [10]; 20 g/ha): 80%
- Pre-emergence action against MATIN (Matricaria inodora [10]; 80 g/ha): 90%
- Pre-emergence action against MATIN (Matricaria inodora [10]; 320 g/ha): 100%
- Post-emergence action against PHBPU in % (Pharbitis purpurea [11]; 5 g/ha): 80%
- Post-emergence action against PHBPU in % (Pharbitis purpurea [11]; 20 g/ha): 90%
- Post-emergence action against PHBPU in % (Pharbitis purpurea [11]; 80 g/ha): 90%
- Pre-emergence action against ABUTH (Abutilon theophrasti [12]; 20 g/ha): 100%
- Pre-emergence action against ABUTH (Abutilon theophrasti [12]; 80 g/ha): 100%
- Pre-emergence action against ABUTH (Abutilon theophrasti [12]; Dosage column 320 g/ha (heading prints 3200 g/ha)): 100%
- Pre-emergence action against SETVI (Setaria viridis [13]; 20 g/ha): 90%
- Pre-emergence action against SETVI (Setaria viridis [13]; 80 g/ha): 100%
- Pre-emergence action against SETVI (Setaria viridis [13]; 320 g/ha): 100%
- Post-emergence action against HORMU in % (Hordeum murinum [14]; 20 g/ha): 90%
- Post-emergence action against HORMU in % (Hordeum murinum [14]; 80 g/ha): 100%
- Post-emergence action against CYPES in % (Cyperus esculentus [15]): 90%
- Pre-emergence action against VERPE (Veronica persica [16]): 100%
- Pre-emergence action against STEME (Stellaria media [17]; 20 g/ha): 90%
- Pre-emergence action against STEME (Stellaria media [17]; 80 g/ha): 90%
- Pre-emergence action against STEME (Stellaria media [17]; 320 g/ha): 90%
- Post-emergence action against ABUTH (Abutilon theophrasti [18]; 5 g/ha): 100%
- Post-emergence action against ABUTH (Abutilon theophrasti [18]; 20 g/ha): 100%
- Post-emergence action against ABUTH (Abutilon theophrasti [18]; 80 g/ha): 100%
- Pre-emergence action against PHBPU (Pharbitis purpurea [19]; 80 g/ha): 80%
- Pre-emergence action against PHBPU (Pharbitis purpurea [19]; 320 g/ha): 90%
- Post-emergence action against LOLRI in % (Lolium rigidum [20]; 20 g/ha): 90%
- Post-emergence action against LOLRI in % (Lolium rigidum [20]; 80 g/ha): 100%
- Pre-emergence action against ALOMY (Alopecurus myosuroides [21]; 80 g/ha): 80%
- Pre-emergence action against ALOMY (Alopecurus myosuroides [21]; 320 g/ha): 90%
- Pre-emergence action against POLCO (Polygonum convolvulus [22]): 80%
- Post-emergence action against STEME in % (Stellaria media [23]; 5 g/ha): 100%
- Post-emergence action against STEME in % (Stellaria media [23]; 20 g/ha): 100%
- Post-emergence action against STEME in % (Stellaria media [23]; 80 g/ha): 100%
- Pre-emergence action against ECHCG (Echinochloa crus-galli [24]; 80 g/ha): 90%
- Pre-emergence action against ECHCG (Echinochloa crus-galli [24]; 320 g/ha): 100%
- Post-emergence action against AVEFA in % (Avena fatua [25]; 5 g/ha): 80%
- Post-emergence action against AVEFA in % (Avena fatua [25]; 20 g/ha): 100%
- Post-emergence action against AVEFA in % (Avena fatua [25]; 80 g/ha): 100%
- Pre-emergence action against LOLRI (Lolium rigidum [26]): 90%
- Pre-emergence action against AMARE (Amaranthus retroflexus [27]; 20 g/ha): 90%
- Pre-emergence action against AMARE (Amaranthus retroflexus [27]; 80 g/ha): 100%
- Pre-emergence action against AMARE (Amaranthus retroflexus [27]; 320 g/ha): 100%
- Pre-emergence action against VIOTR (Viola tricolor [28]; 20 g/ha): 80%
- Pre-emergence action against VIOTR (Viola tricolor [28]; 80 g/ha): 80%
- Pre-emergence action against VIOTR (Viola tricolor [28]; 320 g/ha): 100%
- Pre-emergence action against HORMU (Hordeum murinum [29]; 80 g/ha): 80%
- Pre-emergence action against HORMU (Hordeum murinum [29]; 320 g/ha): 90%
- Post-emergence action against SETVI in % (Setaria viridis [30]; 5 g/ha): 100%
- Post-emergence action against SETVI in % (Setaria viridis [30]; 20 g/ha): 100%
- Post-emergence action against SETVI in % (Setaria viridis [30]; 80 g/ha): 100%
